US20250288553A1, “Antimicrobial Compositions and Uses for Treatment of Clostridioides difficile, Mycobacterium tuberculosis, and Enterococcus faecalis Infection” (priority 2022, published 2025)
pIC50: −log10 of the molar value. Converted amounts (≈) assume the structure as drawn.

Legend:
Mtb = conditions: at a concentration of 12.5 μg/mL; cited from earlier work
active Mtb = conditions: earlier screen (ref 12); cited from earlier work
dormant Mtb = conditions: earlier screen (ref 12); cited from earlier work
[1] = tested on: TcdA production in C. difficile NAP1; test: Toxin analysis: extracellular TcdA of C. difficile NAP1 at sub-MICs, western blot; type: cell-based, Clostridioides difficile; conditions: NAP1 challenged with 0.5×, 0.25×, 0.125× MIC, 48 h, TcdA normalized to total protein
Experimental: After a 48 h incubation of NAP1 challenged with several dilutions of each compound, extracellular toxin in spent media derived from triplicate cultures was assessed with western blots using a monoclonal antibody against TcdA. Semi-quantitative analysis of toxin levels was performed via densitometry of TcdA band intensity with respect to total protein as measured by the Bradford assay. Semi-quantitative plots are shown below each representative blot. (a) Toxin production in BHIS (NAP1) and BHIS with 5% DMSO (vehicle). (b) Toxin production from cultures challenged with sub-MICs of fidaxomicin, (c) vancomycin, and (d-j) (+)-puupehenone and selected derivatives. Data points represent the means of adjusted toxin levels derived from triplicate cultures, while error bars represent standard deviations. Statistical analysis was performed in GraphPad Prism 8 using unpaired t-tests. *P<0.05; **P<0.01.
To account for changes in biomass, a semi-quantitative analysis of TcdA production was performed by normalizing the target bands from representative western blots to the amount of total protein in each sample.
Toxin analysis. Toxin production was determined by analyzing the amount of extracellular toxin in the cultures from the ASTs described above. At 48 h, total protein of each culture was determined with the Bradford assay using bovine serum albumin (BSA) as a standard.^53 Cultures were then centrifuged at 5,000×g for 5 minutes to clear the supernatants which were separately collected and frozen at −20° C. After thawing at room temperature, cell-free supernatants were mixed 1:1 with 2× Laemmli buffer and incubated in a sand bath at 100° C. for 5 minutes. Twenty microliters of denatured samples were loaded onto 7.5% Tris-glycine gels and electrophoresed at 200 V for 1 h. After electrophoresis, samples were transferred to polyvinylidene difluoride membranes at 4° C. overnight at 30 V. Membranes were incubated in a blocking buffer (20 mM Tris-HCl, 150 mM NaCl, 0.01 mM ethylenediaminetetraacetic acid, 0.1% Tween 20, 1% BSA, [pH 7.5]) for 1 h at room temperature. TcdA was detected with a monoclonal mouse anti-TcdA antibody (PCG4.1, Novus Biologicals) and a rabbit anti-mouse antibody conjugated with alkaline phosphatase. Blots were visualized with a ChemiDoc XRS+ imaging system (Bio-Rad).
Semi-quantitative analysis of TcdA was performed using Image Lab 6.0 software (Bio-Rad). Briefly, after subtracting background noise, peaks corresponding to the target band were selected with the software's Lane Profile tool. The density of each peak generated a value (arbitrary units) that was normalized to the total protein amount of each respective sample. […] These losses of activity prevented us from performing statistical analysis from multiple experiments, as the sub-MICs were not always the same. Since there were no changes to the methodology described, several other reasons could have accounted for decreased activity, such as compound stability, freeze-thaw, and adherence to plastic. Nevertheless, the toxin results were reproducible, irrespective of the exact sub-MICs on different days.

[2] = Cytotoxicity assay J774A.1; type: cell-based, murine; conditions: mouse, J774A.1 macrophage-like cells; J774A.1 cells; read-out: Cytotoxicity (IC50) J774
Experimental: (§1) To evaluate the selectivity of the top six compounds from the Mtb-lux activity screen (Table 2), cytotoxicity for two different mammalian cell lines was determined. The IC50 was calculated for each compound against J774A.1 and HepG2 cell lines. The selectivity index (SI) for both replicating and dormant conditions was then calculated by taking the IC50 and dividing it by the corresponding MIC (SIR=IC50/MICR, SID=IC50/MICD)^40. Consistent with the experience, the J774 macrophage cell line was more sensitive to all compounds tested. […] Based on these observations, this triacetate protected puupehenone represents a promising candidate for further optimization.
(§2) Cytotoxicity assay: Cytotoxicity was assessed using J774A.1 (murine macrophage-like) and HepG2 (human liver carcinoma) cell lines using 2-fold dilution of the compounds as described previously^42, 43. IC50 values were determined using nonlinear regression fitting of the databy GraphPad Prism. The selectivity Index (SI) was calculated as IC50/MIC.

[3] = tested on: J774A.1 (murine macrophage-like) cell line; test: Cytotoxicity assay J774A.1; type: cell-based
Experimental: as §1, §2

[4] = tested on: Clostridioides difficile NAP1; test: MIC against C. difficile NAP1, modified broth microdilution; conditions: for MIC C. difficile: NAP1, modified broth microdilution, 48 h, anaerobic
[5] = tested on: dormant Mtb-lux (Mycobacterium tuberculosis CDC1551 with pMV306hsp+LuxG13); type: cell-based; conditions: for R/D (MICR/MICD, Mtb-lux): ratio replicating MIC to dormant MIC
[6] = tested on: M. smegmatis mc^2155 ATCC 700084; test: MIC against M. smegmatis, REMA; type: cell-based, Mycobacterium smegmatis; conditions: Mycolicibacterium smegmatis, ATCC700084|MC^2155; determined visually by REMA assay, 24-hour incubation
[7] = tested on: Mycobacterium tuberculosis H37Ra ATCC 25177; test: MIC against Mtb H37Ra, resazurin microtiter assay (REMA); type: cell-based; conditions: Mycobacterium tuberculosis, 336 h, determined visually by REMA assay, 14-day incubation; read-out: MIC Mtb H37Ra
[8] = tested on: replicating Mtb-lux (Mycobacterium tuberculosis CDC1551 with pMV306hsp+LuxG13); type: cell-based
Cytotoxicity assay HepG2 = conditions: human
[9] = tested on: HepG2 (human liver carcinoma) cell line; test: Cytotoxicity assay HepG2
[10] = tested on: Staphylococcus aureus ATCC 25923; test: MIC against S. aureus, REMA; conditions: visual, 24 h
[11] = tested on: Bacillus subtilis ATCC 23857; test: MIC against B. subtilis, REMA; conditions: REMA, visual, 24 h
[12] = tested on: Enterococcus faecalis ATCC 29212; test: MIC against E. faecalis, REMA; conditions: REMA, visual, 24 h

SMILES | inhibition of Mtb (Mtb) [%] | MIC against active Mtb (active Mtb) [µg/mL] | MIC in multistress dormancy model of Mtb (dormant Mtb) [µg/mL] | Effect on TcdA toxin production [1] | MIC C. difficile [4] [µg/mL] | MICD (Mtb-lux) [5] [µg/mL] | R/D (MICR/MICD, Mtb-lux) [5] | MICR (Mtb-lux) [8] [µg/mL] | other results
CC1(C)CCC[C@]2(C)[C@H]3[C@H](C#N)c4cc(O)c(O)cc4O[C@@]3(C)CC[C@@H]12 [Compound 4, 15-α-cyanopuupehenol] | 96 |  |  |  |  |  |  |  | 
CC1(C)CCC[C@]2(C)[C@H]3C(C#N)=C4C=C(O)C(=O)C=C4O[C@@]3(C)CC[C@@H]12 [Compound 5, 15-cyanopuupehenone] | 90 |  |  |  |  |  |  |  | 
CC1(C)CCC[C@]2(C)C3=CC4=CC(=O)C(=O)C=C4O[C@@]3(C)CC[C@@H]12 [Compound 2, Puupehedione] |  | 87.6 (≈ 268 µM) | 15.4 |  |  |  |  |  | 
CO[C@@H]1c2cc(OC(C)=O)c(OC(C)=O)cc2O[C@@]2(C)CC[C@H]3C(C)(C)CCC[C@]3(C)[C@@H]12 [Compound 15] |  |  |  | decreased the amount of toxin in a similar concentration-dependent manner | 4.0 (≈ 9 µM) | 1.7 | 5.2 | 8.9 | pIC50 [2]: 4.23; SI (SID) J774 [3]: 34.8; SI (SIR) J774 [3]: 6.6; MIC ([4]; Clostridioides difficile, NAP1, 48 h, read-out: MIC C. difficile, NAP1, modified broth microdilution, 48 h, anaerobic): 2 to 4 µg/mL (≈ 4.5 to 9 µM); MIC [6]: 22.2 µg/mL (≈ 49.9 µM); MIC [7]: 2.7 µg/mL (≈ 6.07 µM); pIC50 (Cytotoxicity assay HepG2): ~3.97; SI (SID) HepG2 [9]: 62.9; SI (SIR) HepG2 [9]: 12.0
CC1(C)CCCC2(C)C1CCC(C)(O)C2Cc1ccc(O)cc1 (stereo not shown) [Compound 34] |  |  |  | decreased the amount of toxin in a similar concentration-dependent manner | 16.0 (≈ 50.6 µM) | 30.9 | 3.7 | 114.3 | MIC S. aureus [10]: 16.9 µg/mL (≈ 53.4 µM); MIC B. subtilis [11]: 7.9 µg/mL (≈ 25 µM); MIC E. faecalis [12]: 15.8 µg/mL (≈ 49.9 µM)
CO[C@@H]1c2cc(O)c(O)cc2O[C@@]2(C)CCC3C(C)(C)CCC[C@]3(C)[C@@H]12 (stereo partly drawn) [Compound 3, 15-α-methoxypuupehenol] |  | 11.3 (≈ 31.3 µM) | 0.5 |  |  |  |  |  | 
